Measured values published in patent US20260274829A1, “NEW E3 UBIQUITIN LIGASE LIGAND, PROTEIN DEGRADATION AGENT AND USE THEREOF” (GLUETACS THERAPEUTICS (SHANGHAI) CO., LTD., priority 2023, published 2026).
pIC50: −log10 of the molar value.

Biological target: T1, human Cereblon WT GST-tagged protein (Homo sapiens, UniProt Q96SW2)
T1 construct: purchased CISBIO 64BDCRBNPEH
Experiment: CRBN binding, HTRF CEREBLON BINDING kit
Conditions: CRBN binding, HTRF CEREBLON BINDING kit
Summary of the method: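 Binding inhibition was calculated from the 665/620 nm emission ratios, with blank wells and solvent wells as references. Test compounds competed for GST-tagged human Cereblon WT against a Thalidomide-Re reagent paired with GST Eu antibody. Plates were sealed and held at room temperature for 3 hours before the HTRF read.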

T1 sequence (Q96SW2 whole entry): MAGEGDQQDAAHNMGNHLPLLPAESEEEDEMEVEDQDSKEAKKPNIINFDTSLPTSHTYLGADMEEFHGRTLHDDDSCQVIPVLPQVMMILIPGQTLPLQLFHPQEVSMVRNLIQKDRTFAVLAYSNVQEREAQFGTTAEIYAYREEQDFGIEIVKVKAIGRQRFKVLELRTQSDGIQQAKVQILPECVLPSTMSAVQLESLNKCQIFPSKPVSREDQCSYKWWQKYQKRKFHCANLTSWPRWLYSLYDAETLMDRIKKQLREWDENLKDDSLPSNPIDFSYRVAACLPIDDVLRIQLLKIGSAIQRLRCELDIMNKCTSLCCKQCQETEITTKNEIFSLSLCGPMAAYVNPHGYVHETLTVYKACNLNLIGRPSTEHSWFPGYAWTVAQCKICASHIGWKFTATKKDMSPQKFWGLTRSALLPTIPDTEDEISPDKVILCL

Row | pIC50 | SMILES
1 | > 6.30 | CN(Cc1cncc(N2CCC(=O)NC2=O)c1)C1CCN(c2ccc(-c3cc(F)c4c(c3)C(=O)N(C(C(=O)Nc3nccs3)c3ncn5c3CCC5)C4)cc2)CC1 (centres unmarked) [GT-07384, 2-(6,7-dihydro-5H-pyrrolo[1,2-c]imidazol-1-yl)-2-(6-(4-(4-(((5-(2,4-dioxotetrahydropyrimidin-1(2H)-yl)pyridin-3-yl)methyl)(methyl)amino)piperidin-1-yl)phenyl)-4-fluoro-1-oxoisoindolin-2-yl)-N-(thiazol-2-yl)acetamide]
2 | > 6.30 | CN(Cc1ccc(C2CCC(=O)NC2=O)cn1)C1CCN(c2ccc(-c3cc(F)c4c(c3)C(=O)N(C(C(=O)Nc3nccs3)c3ncn5c3CCC5)C4)cc2)CC1 (centres unmarked) [GT-07385, 2-(6,7-dihydro-5H-pyrrolo[1,2-c]imidazol-1-yl)-2-(6-(4-(4-(((5-(2,6-dioxopiperidin-3-yl)pyridin-2-yl)methyl)(methyl)amino)piperidin-1-yl)phenyl)-4-fluoro-1-oxoisoindolin-2-yl)-N-(thiazol-2-yl)acetamide]
3 | 5.72 to 6.00 | O=C1CCN(c2cc(CN3C[C@H]4C[C@@H]3CN4c3ccc(-c4cc(F)c5c(c4)C(=O)N(C(C(=O)Nc4nccs4)c4ncn6c4CCC6)C5)cc3)c(F)cn2)C(=O)N1 (stereo partly drawn) [GT-07386, 2-(6,7-dihydro-5H-pyrrolo[1,2-c]imidazol-1-yl)-2-(6-(4-((1R,4R)-5-((2-(2,4-dioxotetrahydropyrimidin-1(2H)-yl)-5-fluoropyridin-4-yl)methyl)-2,5-diazabicyclo[2.2.1]heptan-2-yl)phenyl)-4-fluoro-1-oxoisoindolin-2-yl)-N-(thiazol-2-yl)acetamide]
4 | 5.72 to 6.00 | O=C1CCN(c2cc(CN3C[C@H]4C[C@@H]3CN4c3ccc(-c4cc(F)c5c(c4)C(=O)N(C(C(=O)Nc4nccs4)c4ncn6c4CCC6)C5)cc3)ccn2)C(=O)N1 (stereo partly drawn) [GT-07387, 2-(6,7-dihydro-5H-pyrrolo[1,2-c]imidazol-1-yl)-2-(6-(4-((1R,4R)-5-((2-(2,4-dioxotetrahydropyrimidin-1(2H)-yl)pyridin-4-yl)methyl)-2,5-diazabicyclo[2.2.1]heptan-2-yl)phenyl)-4-fluoro-1-oxoisoindolin-2-yl)-N-(thiazol-2-yl)acetamide]
5 | > 6.30 | O=C1CCN(c2cncc(CN3C[C@H]4C[C@@H]3CN4c3ccc(-c4cc(F)c5c(c4)C(=O)N(C(C(=O)Nc4nccs4)c4ncn6c4CCC6)C5)cc3)c2)C(=O)N1 (stereo partly drawn) [GT-07388, 2-(6,7-dihydro-5H-pyrrolo[1,2-c]imidazol-1-yl)-2-(6-(4-((1R,4R)-5-((5-(2,4-dioxotetrahydropyrimidin-1(2H)-yl)pyridin-3-yl)methyl)-2,5-diazabicyclo[2.2.1]heptan-2-yl)phenyl)-4-fluoro-1-oxoisoindolin-2-yl)-N-(thiazol-2-yl)acetamide]
6 | > 6.30 | O=C1CCC(c2ccc(CN3C[C@H]4C[C@@H]3CN4c3ccc(-c4cc(F)c5c(c4)C(=O)N(C(C(=O)Nc4nccs4)c4ncn6c4CCC6)C5)cc3)nc2)C(=O)N1 (stereo partly drawn) [GT-07389, 2-(6,7-dihydro-5H-pyrrolo[1,2-c]imidazol-1-yl)-2-(6-(4-((1R,4R)-5-((5-(2,6-dioxopiperidin-3-yl)pyridin-2-yl)methyl)-2,5-diazabicyclo[2.2.1]heptan-2-yl)phenyl)-4-fluoro-1-oxoisoindolin-2-yl)-N-(thiazol-2-yl)acetamide]
7 | 6.00 to 6.30 | O=C1CCC(c2cc(CN3C[C@H]4C[C@@H]3CN4c3ccc(-c4cc(F)c5c(c4)C(=O)N(C(C(=O)Nc4nccs4)c4ncn6c4CCC6)C5)cc3)ccn2)C(=O)N1 (stereo partly drawn) [GT-07390, 2-(6,7-dihydro-5H-pyrrolo[1,2-c]imidazol-1-yl)-2-(6-(4-((1R,4R)-5-((2-(2,6-dioxopiperidin-3-yl)pyridin-4-yl)methyl)-2,5-diazabicyclo[2.2.1]heptan-2-yl)phenyl)-4-fluoro-1-oxoisoindolin-2-yl)-N-(thiazol-2-yl)acetamide]
8 | > 6.30 | O=C1CCC(c2cncc(CN3C[C@H]4C[C@@H]3CN4c3ccc(-c4cc(F)c5c(c4)C(=O)N(C(C(=O)Nc4nccs4)c4ncn6c4CCC6)C5)cc3)c2)C(=O)N1 (stereo partly drawn) [GT-07391, 2-(6,7-dihydro-5H-pyrrolo[1,2-c]imidazol-1-yl)-2-(6-(4-((1R,4R)-5-((5-(2,6-dioxopiperidin-3-yl)pyridin-3-yl)methyl)-2,5-diazabicyclo[2.2.1]heptan-2-yl)phenyl)-4-fluoro-1-oxoisoindolin-2-yl)-N-(thiazol-2-yl)acetamide]
9 | 5.72 to 6.00 | O=C1CCC(c2cc(CN3CCN(c4ccc(-c5cc(F)c6c(c5)C(=O)N(C(C(=O)Nc5nccs5)c5ncn7c5CCC7)C6)cc4)CC3)ccn2)C(=O)N1 (centres unmarked) [GT-07392, 2-(6,7-dihydro-5H-pyrrolo[1,2-c]imidazol-1-yl)-2-(6-(4-(4-((2-(2,6-dioxopiperidin-3-yl)pyridin-4-yl)methyl)piperazin-1-yl)phenyl)-4-fluoro-1-oxoisoindolin-2-yl)-N-(thiazol-2-yl)acetamide]
10 | > 6.30 | CN(Cc1cncc(C2CCC(=O)NC2=O)c1)C1CCN(c2ccc(-c3cc(F)c4c(c3)C(=O)N(C(C(=O)Nc3nccs3)c3ncn5c3CCC5)C4)cc2)CC1 (centres unmarked) [GT-07393, 2-(6,7-dihydro-5H-pyrrolo[1,2-c]imidazol-1-yl)-2-(6-(4-(4-(((5-(2,6-dioxopiperidin-3-yl)pyridin-3-yl)methyl)(methyl)amino)piperidin-1-yl)phenyl)-4-fluoro-1-oxoisoindolin-2-yl)-N-(thiazol-2-yl)acetamide]
11 | > 6.30 | O=C1CCC(c2cncc(CN3CCN(c4ccc(-c5cc(F)c6c(c5)C(=O)N(C(C(=O)Nc5nccs5)c5ncn7c5CCC7)C6)cc4)CC3)c2)C(=O)N1 (centres unmarked) [GT-07472, 2-(6,7-dihydro-5H-pyrrolo[1,2-c]imidazol-1-yl)-2-(6-(4-(4-((5-(2,6-dioxopiperidin-3-yl)pyridin-3-yl)methyl)piperazin-1-yl)phenyl)-4-fluoro-1-oxoisoindolin-2-yl)-N-(thiazol-2-yl)acetamide]
12 | 6.00 to 6.30 | CN(Cc1ccnc(C2CCC(=O)NC2=O)c1)C1CCN(c2ccc(-c3cc(F)c4c(c3)C(=O)N(C(C(=O)Nc3nccs3)c3ncn5c3CCC5)C4)cc2)CC1 (centres unmarked) [GT-07473, 2-(6,7-dihydro-5H-pyrrolo[1,2-c]imidazol-1-yl)-2-(6-(4-(4-(((2-(2,6-dioxopiperidin-3-yl)pyridin-4-yl)methyl)(methyl)amino)piperidin-1-yl)phenyl)-4-fluoro-1-oxoisoindolin-2-yl)-N-(thiazol-2-yl)acetamide]
13 | > 6.30 | O=C1CCC(c2cnc(F)c(CN3CCN(c4ccc(-c5cc(F)c6c(c5)C(=O)N(C(C(=O)Nc5nccs5)c5ncn7c5CCC7)C6)cc4)CC3)c2)C(=O)N1 (centres unmarked) [GT-07490, 2-(6,7-dihydro-5H-pyrrolo[1,2-c]imidazol-1-yl)-2-(6-(4-(4-((5-(2,6-dioxopiperidin-3-yl)-2-fluoropyridin-3-yl)methyl)piperazin-1-yl)phenyl)-4-fluoro-1-oxoisoindolin-2-yl)-N-(thiazol-2-yl)acetamide]
14 | > 6.30 | CN(Cc1cc(C2CCC(=O)NC2=O)cnc1F)C1CCN(c2ccc(-c3cc(F)c4c(c3)C(=O)N(C(C(=O)Nc3nccs3)c3ncn5c3CCC5)C4)cc2)CC1 (centres unmarked) [GT-07560, 2-(6,7-dihydro-5H-pyrrolo[1,2-c]imidazol-1-yl)-2-(6-(4-(4-(((5-(2,6-dioxopiperidin-3-yl)-2-fluoropyridin-3-yl)methyl)(methyl)amino)piperidin-1-yl)phenyl)-4-fluoro-1-oxoisoindolin-2-yl)-N-(thiazol-2-yl)acetamide]
